Laboratory results published in patent US20230174584A1, “Antibiotic Compounds” (priority 2019, published 2023).
≈ marks a conversion by molar mass, not a printed value. Read-outs that look alike come from different tables or passages of the source.

Experiments:
[1] = tested on: S. aureus LIM-2, NR-25881; experiment: MIC assay; format: cell-based, Staphylococcus aureus
Method in brief: (§1)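 Broth microdilution per CLSI in TSB with 0.002% polysorbate 80; 2-fold compound series mixed with an equal volume of 10^6 CFU/mL inoculum, then 24 h at 37 °C with 600 rpm shaking. MIC in μg/mL is the median of at least triplicates.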

[2] = tested on: S. aureus NY-155, NR-46236; experiment: MIC assay; format: cell-based, Staphylococcus aureus
Method in brief: as §1

[3] = tested on: Escherichia coli ATCC 25922; experiment: MIC assay; format: cell-based
Protocol: (§2) The antibacterial activity of the compounds was tested against a panel of bacteria, including Gram-positive bacteria (S. aureus ATCC29213, S. aureus USA300, S. aureus LIM-2, NR-45881, S. aureus HIP13419, NR-46413, E. faecium E155, E. faecium E7314, E. faecium E980, E. faecalis E1246, E. faecalis E7406 and S. pneumonia 153). The antibacterial activity of the compounds was further tested against S. aureus NY-155, NR-46236, S. aureus HIP12864, NR-46074, S. aureus 880 (BR-VRSA), NR-49120, E. faecalis E1246, E. faecalis E7604, as well as some Gram-negative bacteria (Escherichia coli and Klebsiella pneumoniae). Minimum inhibitory concentrations (MICs) in μg/mL were performed according to the CLSI guidelines. From glycerol stocks, bacterial strains were cultured on blood agar plates and incubated at 37° C. for 18 h. A single colony was transferred to tryptic soy broth (TSB) with 0.002% polysorbate 80 (p80). For the Enterococcus, VISA and VRSA strains, the cultures were grown at 37° C. until the optical density of the suspension reached a level equivalent to the 0.5 McFarland standard. The bacterial suspensions were diluted in TSB with 0.002% p80 to reach a bacterial cell density of 10^6 CFU/mL. In case of the other (vancomycin-sensitive) S. aureus strains, the direct colony suspension method was used. For these strains, after transfer of the colonies to TSB with 0.002% p80, they were immediately diluted to 10^6 CFU/mL, instead of incubated prior to this dilution. In the case of S. pneumonia, direct colony suspension was used by immediately suspending multiple colonies from fresh blood agar plates in TSB+0.002% p80 to an OD600 of 0.5 and subsequent dilution to 10^6 CFU mL^−1 in TSB+0.002% p80+5% lysed horse blood. Antibiotic dilutions for this strains were also made in TSB+0.002% p80+5% lysed horse blood. Both agar and microplates containing S. pneumonia were incubated at 37° C. with 5% CO2 for 24 h with constant shaking (600 rpm). […] The cultures were grown to exponential phase (OD600=0.5) at 37° C. […] In polypropylene 96-well microtiter plates, test compounds were added in biological triplicates and serial diluted 2-fold by transfer and mixing from one well to the next to achieve a final volume of 50 μL per well. An equal volume of bacterial suspension (10^6 CFU mL^−1) was added to the wells. The plates were sealed with breathable membranes and incubated at 37° C. for 24 h with constant shaking (600 rpm). In polypropylene microtiter plates, 100 μL of the test compounds was added to the first row in biological triplicates, and 50 μL of media was added to the other wells. The compounds were subjected to serial dilution by transfer and mixing of 50 μL from one well to the next. Subsequently, 50 μL of bacterial suspension (10^6 CFU/mL) was added to the wells. The plates were sealed with breathable membranes and incubated at 37° C. for 24 h with constant shaking (600 rpm). Positive growth control consisted of wells with bacterial suspension and without antibiotic. Negative growth control consisted of solely media without bacterial suspension or antibiotic. The MICs were determined from the median of a minimum of triplicates.

[4] = tested on: Escherichia coli ATCC 35218; experiment: MIC assay; format: cell-based
Protocol: as §2

[5] = tested on: Escherichia coli W3110; experiment: MIC assay; format: cell-based
Protocol: as §2

[6] = tested on: Klebsiella pneumoniae ATCC 13883; experiment: MIC assay; format: cell-based
Protocol: as §2

[7] = tested on: Klebsiella pneumoniae ATCC 27736; experiment: MIC assay; format: cell-based
Protocol: as §2

[8] = tested on: Klebsiella pneumoniae JS265; experiment: MIC assay; format: cell-based
Protocol: as §2

[9] = tested on: S. pneumoniae 153; experiment: MIC assay; format: cell-based
Protocol: as §2

[10] = tested on: E. faecium E0341; experiment: MIC assay; format: cell-based, Enterococcus faecium
[11] = tested on: S. aureus ATCC29123; experiment: Lipid II antagonization assay; format: cell-based, Staphylococcus aureus; settings: for visible bacterial growth with lipid II / visible bacterial growth without lipid II: 8×MIC of test compound, 24 h; for visible bacterial growth with lipid II: 5-fold molar excess of lipid II; for bacterial growth after co-incubation with lipid II: 8×MIC; as to visible bacterial growth with lipid II: key: − means no visible growth; + means visible growth; as to visible bacterial growth without lipid II: key: − means no visible growth; + means visible growth
Protocol: Lipid II in chloroform was added in the appropriate amount (5-fold molar excess compared to test antibiotics) to a 96-well plate and the chloroform was allowed to evaporate. […] Of these dilutions, 50 μL was mixed with the 5-fold molar excess of pure lipid II in triplicates in the plate as well as added to the plate in triplicates without lipid II present. S. aureus ATCC29123 colonies were suspended in TSB with 0.002% p80 by direct colony suspension to an optical density that reached a level equivalent to the 0.5 McFarlan standard. […] The samples were incubated at 37° C. for 24 h with constant shaking (600 rpm) and inspected for visible bacterial growth. Positive growth control consisted of wells with bacterial suspension and without antibiotic or lipid II. Negative growth control consisted of solely media without bacterial suspension, antibiotic or lipid II.
In the antagonization assay, lipid II is co-incubated with the test antibiotics in the presence of bacterial culture. When lipid II binds the glycopeptides, the binding of these antibiotics to their target in the growing bacterial culture is antagonized. This ultimately results in diminished activity of the antibiotics and bacterial growth which normally would not be visible (at 8×MIC) becomes visible. Therefore, this assay could be used to determine if part of the mechanism of action of our compounds involves binding to lipid II.

[12] = S. aureus NY-155, NR-46236 MRSA
[13] = S. pneumoniae 153, TSB+0.002% p80+5% lysed horse blood

## CCCCCCCNC(N)=Nc1ccc(CN[C@@]2(C)C[C@H](O[C@H]3[C@H](Oc4c5cc6cc4Oc4ccc(cc4Cl)[C@@H](O)[C@@H](NC(=O)[C@@H](CC(C)C)NC)C(=O)N[C@@H](CC(N)=O)C(=O)N[C@H]6C(=O)N[C@H]4C(=O)N[C@H](C(=O)N[C@H](C(=O)O)c6cc(O)cc(O)c6-c6cc4ccc6O)[C@H](O)c4ccc(c(Cl)c4)O5)O[C@H](CO)[C@@H](O)[C@@H]3O)O[C@@H](C)[C@H]2O)cc1 [Compound 5]
[1]; S. aureus LIM-2, NR-25881 VISA
  MIC: 0.031 µg/mL (≈ 0.0183 µM)
[2]; [12]
  MIC: ≤0.008 µg/mL
[3]
  MIC: >128 µg/mL
[4]
  MIC: >128 µg/mL
[5]
  MIC: >128 µg/mL
[6]
  MIC: >128 µg/mL
[7]
  MIC: >128 µg/mL
[8]
  MIC: >128 µg/mL
[9]; [13]
  MIC: ≤0.008 µg/mL
[10]; E. faecium E0341, VanA
  MIC: 8 µg/mL (≈ 4.72 µM)
[11]
  visible bacterial growth with lipid II: +
  visible bacterial growth without lipid II: −
  bacterial growth after co-incubation with lipid II: Bacterial growth was visible

## CN[C@H](CC(C)C)C(=O)N[C@H]1C(=O)N[C@@H](CC(N)=O)C(=O)N[C@H]2C(=O)N[C@H]3C(=O)N[C@H](C(=O)N[C@H](C(=O)O)c4cc(O)cc(O)c4-c4cc3ccc4O)[C@H](O[C@H]3C[C@](C)(N)[C@@H](O)[C@H](C)O3)c3ccc(c(Cl)c3)Oc3cc2cc(c3O[C@@H]2O[C@H](CO)[C@@H](O)[C@H](O)[C@H]2O[C@H]2C[C@](C)(NCc3ccc(-c4ccc(Cl)cc4)cc3)[C@@H](O)[C@H](C)O2)Oc2ccc(cc2Cl)[C@H]1O [Oritavancin]
[1]; Staphylococcus aureus, VISA
  MIC: 1 µg/mL (≈ 0.558 µM)
[2]; Staphylococcus aureus, MRSA
  MIC: 0.25 µg/mL (≈ 0.139 µM)
[9]; Streptococcus pneumoniae, 153
  MIC: ≤ 0.008 µg/mL

## CCCCCCCCCNC(N)=Nc1ccc(CN[C@@]2(C)C[C@H](O[C@H]3[C@H](Oc4c5cc6cc4Oc4ccc(cc4Cl)[C@@H](O)[C@@H](NC(=O)[C@@H](CC(C)C)NC)C(=O)N[C@@H](CC(N)=O)C(=O)N[C@H]6C(=O)N[C@H]4C(=O)N[C@H](C(=O)N[C@H](C(=O)O)c6cc(O)cc(O)c6-c6cc4ccc6O)[C@H](O)c4ccc(c(Cl)c4)O5)O[C@H](CO)[C@@H](O)[C@@H]3O)O[C@@H](C)[C@H]2O)cc1 [Compound 7]
[1]; S. aureus LIM-2, NR-25881 VISA
  MIC: ≤0.008 µg/mL
[2]; [12]
  MIC: ≤0.008 µg/mL
[3]
  MIC: >128 µg/mL
[4]
  MIC: >128 µg/mL
[5]
  MIC: >128 µg/mL
[6]
  MIC: >128 µg/mL
[7]
  MIC: >128 µg/mL
[8]
  MIC: >128 µg/mL
[9]; [13]
  MIC: ≤0.008 µg/mL
[10]; E. faecium E0341, VanA
  MIC: 1 µg/mL (≈ 0.58 µM)
[11]
  visible bacterial growth with lipid II: +
  visible bacterial growth without lipid II: −
  bacterial growth after co-incubation with lipid II: Bacterial growth was visible

## CCCCCCCCNC(N)=Nc1ccc(CN[C@@]2(C)C[C@H](O[C@H]3[C@H](Oc4c5cc6cc4Oc4ccc(cc4Cl)[C@@H](O)[C@@H](NC(=O)[C@@H](CC(C)C)NC)C(=O)N[C@@H](CC(N)=O)C(=O)N[C@H]6C(=O)N[C@H]4C(=O)N[C@H](C(=O)N[C@H](C(=O)O)c6cc(O)cc(O)c6-c6cc4ccc6O)[C@H](O)c4ccc(c(Cl)c4)O5)O[C@H](CO)[C@@H](O)[C@@H]3O)O[C@@H](C)[C@H]2O)cc1 [Compound 6]
[1]; S. aureus LIM-2, NR-25881 VISA
  MIC: ≤0.008 µg/mL
[2]; [12]
  MIC: ≤0.008 µg/mL
[3]
  MIC: >128 µg/mL
[4]
  MIC: >128 µg/mL
[5]
  MIC: >128 µg/mL
[6]
  MIC: >128 µg/mL
[7]
  MIC: >128 µg/mL
[8]
  MIC: >128 µg/mL
[9]; [13]
  MIC: ≤0.008 µg/mL
[10]; E. faecium E0341, VanA
  MIC: 4 µg/mL (≈ 2.34 µM)
[11]
  visible bacterial growth with lipid II: +
  visible bacterial growth without lipid II: −
  bacterial growth after co-incubation with lipid II: Bacterial growth was visible

## CCCCCCCCCCNCCN[C@@]1(C)C[C@H](O[C@H]2[C@H](Oc3c4cc5cc3Oc3ccc(cc3Cl)[C@@H](O)[C@@H](NC(=O)[C@@H](CC(C)C)NC)C(=O)N[C@@H](CC(N)=O)C(=O)N[C@H]5C(=O)N[C@H]3C(=O)N[C@H](C(=O)N[C@H](C(=O)O)c5cc(O)c(CNCP(=O)(O)O)c(O)c5-c5cc3ccc5O)[C@H](O)c3ccc(c(Cl)c3)O4)O[C@H](CO)[C@@H](O)[C@@H]2O)O[C@@H](C)[C@H]1O [Telavancin, reference compound]
[1]; Staphylococcus aureus, VISA
  MIC: 0.25 µg/mL (≈ 0.142 µM)
[2]; Staphylococcus aureus, MRSA
  MIC: 0.031 µg/mL (≈ 0.0177 µM)
[3]; ATCC25922, read-out: MIC
  MIC: > 128 µg/mL
[4]
  MIC: > 128 µg/mL
[5]; read-out: MIC
  MIC: > 128 µg/mL
[6]; ATCC13883, read-out: MIC
  MIC: > 128 µg/mL
[7]; ATCC27736, read-out: MIC
  MIC: > 128 µg/mL
[8]; read-out: MIC
  MIC: > 128 µg/mL
[9]; Streptococcus pneumoniae, 153
  MIC: ≤ 0.008 µg/mL
[10]; Enterococcus faecium, E0341
  MIC: 8 µg/mL (≈ 4.56 µM)
[11]
  visible bacterial growth with lipid II: +
  visible bacterial growth without lipid II: −

## CCCCCCN(CCCCCC)C(N)=Nc1ccc(CN[C@@]2(C)C[C@H](O[C@H]3[C@H](Oc4c5cc6cc4Oc4ccc(cc4Cl)[C@@H](O)[C@@H](NC(=O)[C@@H](CC(C)C)NC)C(=O)N[C@@H](CC(N)=O)C(=O)N[C@H]6C(=O)N[C@H]4C(=O)N[C@H](C(=O)N[C@H](C(=O)O)c6cc(O)cc(O)c6-c6cc4ccc6O)[C@H](O)c4ccc(c(Cl)c4)O5)O[C@H](CO)[C@@H](O)[C@@H]3O)O[C@@H](C)[C@H]2O)cc1 [Compound 12]
[1]; S. aureus LIM-2, NR-25881 VISA
  MIC: ≤0.008 µg/mL
[2]; [12]
  MIC: ≤0.008 µg/mL
[3]
  MIC: >128 µg/mL
[4]
  MIC: >128 µg/mL
[5]
  MIC: >128 µg/mL
[6]
  MIC: >128 µg/mL
[7]
  MIC: >128 µg/mL
[8]
  MIC: >128 µg/mL
[9]; [13]
  MIC: ≤0.008 µg/mL
[10]; E. faecium E0341, VanA
  MIC: 2 µg/mL (≈ 1.13 µM)
